Assay results taken from US20240335420A1, “N-ACYLHYDRAZONE COMPOUNDS CAPABLE OF INHIBITING NAV 1.7 AND/OR NAV 1.8, PROCESSES FOR THE PREPARATION THEREOF, COMPOSITIONS, USES, METHODS FOR TREATMENT USING SAME AND KITS” (EUROFARMA LABORATÓRIOS S.A., priority 2021, published 2024).

What was measured:
[1] = target: human sodium channels Nav 1.7 (Homo sapiens (Human), UniProt Q15858); test: Automated whole-cell voltage-clamp (ScreenPatch 384P), Nav 1.7 sodium current, Protocol 2; format: cell-based; settings: Protocol 2 (holding −100 mV, inactivation step −40 mV 8 s, 0.05 Hz); CHO cells expressing human Nav 1.7; read-out: Nav1.7 IC50
Description: (§1) Biological assays were performed on Chinese hamster ovary (CHO) cells expressing the human sodium channels Nav 1.8 and Nav 1.7 stably.
(§2) The experimental voltage-clamp protocol using the whole cell configuration was established on the automated ScreenPatch® 384P platform (SP384PE, Nanion Technologies, Livingston, NJ) and recording of the results was performed with a Nanion 384-well Patch Clamp chip (NPC) (Nanion Technologies, Livingston, NJ).
(§3) Compounds of Formula (I), were diluted in eight concentrations in the extracellular solution composed of physiological saline, buffered with HEPES (mM): NaCl, 137; KCl, 4; CaCl2, 3.8; MgCl2, 1; HEPES, 10; Glucose, 10; pH 7.4. The […], 50; CsF, 90; MgCl2, 5; EGTA, 5; HEPES, 10; pH 7.2. The duration of exposure of each compound with the cells expressing Nav 1.7 or Nav 1.8 was at least five minutes and the assays were performed at room temperature.
(§4) The measurements of the sodium currents of Nav 1.8 and Nav 1.7 were obtained using the voltage protocols described below: • Protocol 1: A holding voltage of −90 mV was established followed by a voltage phase of 200 ms to −120 mV, followed by a voltage step of 10 mV for 1 second for Nav 1.8 or 0 mV for Nav 1.7, followed by a step of −100 mV for 20 ms, followed by a step of 20 ms for 10 mV for Nav 1.8 or 0 mV for Nav 1.7 (TP1A) before returning to the holding voltage of −90 mV. • Protocol 2: A holding voltage of −100 mV was established followed by an inactivation voltage step at −40 mV for 8 seconds, followed by a −100 mV step for […], followed by a 20 ms step for 10 mV for Nav 1.8 or 0 mV for Nav 1.7 (TP1A) before returning to the holding voltage of −100 mV.
(§5) Protocols were repeated at a frequency of 0.1 Hz (Protocol 1) or 0.05 Hz (Protocol 2) and current amplitude was quantified over the TP1A phase log. The variation in the peak amplitude of the current was evaluated according to the Formula described below, after exposure of the cells expressing the channels, at each concentration of the different compounds:
(§6) [formula] • where |TP1A, basal, and |TP1A, molecule represent the entry peaks of sodium currents into TP1A prior to exposure to the compound and in the presence of the compound, respectively.
(§7) The decrease in peak current amplitude, after exposure of the cells to the compounds, was used to calculate the percent relative blocking of the channels relative to the positive control according to the Formula below:
(§8) [formula] • where % V and % CP represent the averages of the values of current inhibition with a vehicle (DMSO) and positive controls, respectively. The sodium currents of the positive control were considered as 100%.
(§9) [formula] • where [Test] represents the concentration of the evaluated molecule, IC50 is the concentration of the compound that generates half of the maximum inhibition, N is the Hill's coefficient and % Block′ is the percentage of the sodium channel current (Nav 1.8 and Nav 1.7) inhibited at each concentration of the evaluated molecule. Data were obtained by non-linear least squares regression with XLfit for Excel (Microsoft, Redmond, WA).
(§10) Compounds were tested in at least one assay to obtain the IC50 value.

[2] = target: human sodium channels Nav 1.8 (Homo sapiens (Human), UniProt Q9Y5Y9); test: Automated whole-cell voltage-clamp (ScreenPatch 384P), Nav 1.8 sodium current, Protocol 2; format: cell-based; settings: Protocol 2 (holding −100 mV, inactivation step −40 mV 8 s, 0.05 Hz); CHO cells expressing human Nav 1.8; read-out: Nav1.8 IC50
Description: as §1, §2, §3, §4, §5, §6, §7, §8, §9, §10

Sequence of human sodium channels Nav 1.7 (Q15858 whole entry): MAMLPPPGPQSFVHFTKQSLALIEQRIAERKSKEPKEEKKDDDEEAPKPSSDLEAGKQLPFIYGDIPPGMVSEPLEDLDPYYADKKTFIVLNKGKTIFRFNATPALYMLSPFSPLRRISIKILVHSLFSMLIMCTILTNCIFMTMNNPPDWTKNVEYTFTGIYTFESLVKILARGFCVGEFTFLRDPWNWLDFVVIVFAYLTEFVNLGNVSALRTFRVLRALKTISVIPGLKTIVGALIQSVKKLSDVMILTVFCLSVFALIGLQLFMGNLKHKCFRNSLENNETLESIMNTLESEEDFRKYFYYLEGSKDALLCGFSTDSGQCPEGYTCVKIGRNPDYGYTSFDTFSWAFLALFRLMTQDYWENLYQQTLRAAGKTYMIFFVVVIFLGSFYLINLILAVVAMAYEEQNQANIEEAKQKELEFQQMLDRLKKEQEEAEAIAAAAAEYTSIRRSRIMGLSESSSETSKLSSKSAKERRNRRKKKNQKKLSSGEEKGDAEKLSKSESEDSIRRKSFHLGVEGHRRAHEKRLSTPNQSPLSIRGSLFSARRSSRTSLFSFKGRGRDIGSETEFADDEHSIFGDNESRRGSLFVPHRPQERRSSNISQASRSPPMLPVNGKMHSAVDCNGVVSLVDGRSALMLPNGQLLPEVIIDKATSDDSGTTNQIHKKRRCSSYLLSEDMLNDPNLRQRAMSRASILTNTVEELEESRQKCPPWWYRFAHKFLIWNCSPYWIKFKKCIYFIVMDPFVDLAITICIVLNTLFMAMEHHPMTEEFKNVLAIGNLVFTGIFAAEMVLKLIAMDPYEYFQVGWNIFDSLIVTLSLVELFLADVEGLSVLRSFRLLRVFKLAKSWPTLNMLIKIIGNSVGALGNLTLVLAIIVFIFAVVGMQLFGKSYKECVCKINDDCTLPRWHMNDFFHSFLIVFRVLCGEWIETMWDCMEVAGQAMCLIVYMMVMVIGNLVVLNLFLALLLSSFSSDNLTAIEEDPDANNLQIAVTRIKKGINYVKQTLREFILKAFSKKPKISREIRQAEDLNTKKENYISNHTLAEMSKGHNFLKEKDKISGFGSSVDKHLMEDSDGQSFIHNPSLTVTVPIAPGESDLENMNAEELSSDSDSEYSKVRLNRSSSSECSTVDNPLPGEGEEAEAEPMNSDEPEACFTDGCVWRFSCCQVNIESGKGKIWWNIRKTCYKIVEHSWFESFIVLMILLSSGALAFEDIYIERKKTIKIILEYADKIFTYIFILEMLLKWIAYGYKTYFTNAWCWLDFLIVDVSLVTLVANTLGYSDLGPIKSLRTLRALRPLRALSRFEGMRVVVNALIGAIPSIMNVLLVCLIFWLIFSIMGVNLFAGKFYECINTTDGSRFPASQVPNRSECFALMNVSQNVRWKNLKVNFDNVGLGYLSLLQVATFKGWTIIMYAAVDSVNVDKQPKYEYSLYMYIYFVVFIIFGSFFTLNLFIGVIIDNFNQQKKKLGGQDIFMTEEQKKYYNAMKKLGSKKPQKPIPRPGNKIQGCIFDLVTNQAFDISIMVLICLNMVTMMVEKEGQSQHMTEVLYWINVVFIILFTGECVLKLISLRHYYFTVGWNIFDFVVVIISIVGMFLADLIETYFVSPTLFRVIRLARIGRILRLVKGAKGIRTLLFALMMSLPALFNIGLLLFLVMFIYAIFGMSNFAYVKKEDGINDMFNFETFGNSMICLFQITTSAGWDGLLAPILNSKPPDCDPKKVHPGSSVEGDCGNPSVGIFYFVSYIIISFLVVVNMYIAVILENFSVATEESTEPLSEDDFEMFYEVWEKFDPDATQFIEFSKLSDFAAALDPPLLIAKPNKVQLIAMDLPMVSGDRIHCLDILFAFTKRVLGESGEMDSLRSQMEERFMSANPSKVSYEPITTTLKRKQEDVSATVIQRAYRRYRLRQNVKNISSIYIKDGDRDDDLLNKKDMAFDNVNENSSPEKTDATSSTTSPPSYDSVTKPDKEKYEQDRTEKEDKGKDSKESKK
Sequence of human sodium channels Nav 1.8 (Q9Y5Y9 whole entry): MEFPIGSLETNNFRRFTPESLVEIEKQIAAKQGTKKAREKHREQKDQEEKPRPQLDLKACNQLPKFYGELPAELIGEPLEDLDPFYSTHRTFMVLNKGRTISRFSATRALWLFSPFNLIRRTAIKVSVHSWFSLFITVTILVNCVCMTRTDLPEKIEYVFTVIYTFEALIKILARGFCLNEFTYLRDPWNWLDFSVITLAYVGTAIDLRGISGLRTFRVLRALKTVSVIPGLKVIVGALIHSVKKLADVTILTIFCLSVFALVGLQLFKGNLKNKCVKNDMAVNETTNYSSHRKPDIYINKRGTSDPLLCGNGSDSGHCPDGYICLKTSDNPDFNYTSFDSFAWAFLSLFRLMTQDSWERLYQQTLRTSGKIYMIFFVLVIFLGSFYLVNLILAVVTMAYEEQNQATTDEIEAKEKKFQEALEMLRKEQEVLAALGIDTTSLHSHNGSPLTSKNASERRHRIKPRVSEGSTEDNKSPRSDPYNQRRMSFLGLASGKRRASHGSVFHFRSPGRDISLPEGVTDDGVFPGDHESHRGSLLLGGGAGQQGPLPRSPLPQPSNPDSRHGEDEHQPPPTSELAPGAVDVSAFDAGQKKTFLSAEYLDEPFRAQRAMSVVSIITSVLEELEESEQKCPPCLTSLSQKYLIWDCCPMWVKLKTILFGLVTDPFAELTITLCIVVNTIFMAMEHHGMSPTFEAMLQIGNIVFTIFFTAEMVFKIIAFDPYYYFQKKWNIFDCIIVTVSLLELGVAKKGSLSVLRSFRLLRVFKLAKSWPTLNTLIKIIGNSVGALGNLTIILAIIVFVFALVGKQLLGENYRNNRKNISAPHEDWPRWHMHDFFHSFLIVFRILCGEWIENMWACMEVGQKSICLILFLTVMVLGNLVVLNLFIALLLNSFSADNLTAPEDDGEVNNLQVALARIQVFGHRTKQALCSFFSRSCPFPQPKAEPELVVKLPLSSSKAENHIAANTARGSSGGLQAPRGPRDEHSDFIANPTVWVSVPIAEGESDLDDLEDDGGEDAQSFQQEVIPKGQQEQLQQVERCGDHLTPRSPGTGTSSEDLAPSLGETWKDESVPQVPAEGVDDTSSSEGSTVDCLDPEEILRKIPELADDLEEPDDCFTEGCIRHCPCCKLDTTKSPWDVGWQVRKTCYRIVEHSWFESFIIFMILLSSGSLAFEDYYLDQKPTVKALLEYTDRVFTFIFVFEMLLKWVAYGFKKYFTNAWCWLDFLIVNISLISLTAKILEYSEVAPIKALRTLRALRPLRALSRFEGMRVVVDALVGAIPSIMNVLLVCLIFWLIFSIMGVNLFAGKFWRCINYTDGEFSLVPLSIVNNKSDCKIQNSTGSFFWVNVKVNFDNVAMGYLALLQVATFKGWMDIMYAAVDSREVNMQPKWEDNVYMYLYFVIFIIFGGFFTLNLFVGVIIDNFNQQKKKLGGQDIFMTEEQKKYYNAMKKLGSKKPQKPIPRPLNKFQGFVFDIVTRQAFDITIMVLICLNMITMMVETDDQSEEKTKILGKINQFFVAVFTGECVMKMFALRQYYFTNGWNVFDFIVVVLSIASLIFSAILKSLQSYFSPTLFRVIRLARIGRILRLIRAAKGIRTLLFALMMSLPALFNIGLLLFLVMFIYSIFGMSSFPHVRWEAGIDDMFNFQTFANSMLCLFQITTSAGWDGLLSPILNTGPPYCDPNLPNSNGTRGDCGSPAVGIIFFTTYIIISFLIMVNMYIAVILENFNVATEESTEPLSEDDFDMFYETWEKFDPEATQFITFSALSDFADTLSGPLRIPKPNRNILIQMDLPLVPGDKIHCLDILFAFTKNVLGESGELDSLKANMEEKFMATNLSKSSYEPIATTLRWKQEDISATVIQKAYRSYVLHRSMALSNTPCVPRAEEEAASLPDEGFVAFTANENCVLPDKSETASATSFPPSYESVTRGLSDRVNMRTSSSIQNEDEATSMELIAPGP

Row | Compound | IC50 [1] [nM] | IC50 [2] [nM]
1 | COc1cc(/C=N/NC(=O)c2cccc(-c3ccc(OC(F)(F)F)cc3)n2)cc(OC)c1 [Compound 40, (E)-N′-(3,5-dimethoxybenzylidene)-6-(4-(trifluoromethoxy)phenyl) picolinohydrazide] | 123 | 140
2 | CCOc1ccc(-c2ccnc(C(=O)N/N=C/c3cc(OC)cc(OC)c3)n2)cc1 [Compound 61, (E)-N′-(3,5-dimethoxybenzylidene)-4-(4-ethoxyphenyl)pyrimidine-2-carbohydrazide] | 651 | 183
3 | CCCOc1ccc(-c2cccc(C(=O)N/N=C/c3cc(OC)cc(OC)c3)n2)cc1 [Compound 15, (E)-N′-(3,5-dimethoxybenzylidene)-6-(4-propoxyphenyl) picolinohydrazide] | 272 | 297
4 | CCCCOc1ccc(-c2cc(C(=O)N/N=C/c3cc(OC)cc(OC)c3)ccn2)cc1 [Compound 38, (E)-2-(4-butoxyphenyl)-N′-(3,5-dimethoxybenzylidene) isonicotinohydrazide] | > 10000 | > 1000
5 | COc1cc(/C=N/NC(=O)c2ccnc(-c3ccc(OC(C)C)cc3)n2)cc(OC)c1 [Compound 54, (E)-N′-(3,5-dimethoxybenzylidene)-2-(4-isopropoxyphenyl)pyrimidine-4-carbohydrazide] | 137 | 313
6 | CCCCOc1ccc(-c2cccc(C(=O)N/N=C/c3cc(OC)cc(OC)c3)n2)cc1 [Compound 41, (E)-6-(4-butoxyphenyl)-N′-(3,5-dimethoxybenzylidene) picolinohydrazide] | 1200 | > 1000
7 | COc1cc(/C=N/NC(=O)c2ccnc(-c3ccc(OC4CCCC4)cc3)c2)cc(OC)c1 [Compound 39, (E)-2-(4-(cyclopentyloxy)phenyl)-N′-(3,5-dimethoxybenzylidene) isonicotinohydrazide] | > 10000 | > 1000
8 | CCOc1ccc(-c2cccc(C(=O)N/N=C/c3cc(OC)cc(OC)c3)n2)cc1 [Compound 31, (E)-N′-(3,5-dimethoxybenzylidene)-6-(4-ethoxyphenyl) picolinohydrazide] | 444 | 224
9 | COc1cc(/C=N/NC(=O)c2nccc(-c3ccc(Cl)cc3)n2)cc(OC)c1 [Compound 60, (E)-4-(4-chlorophenyl)-N′-(3,5-dimethoxybenzylidene)pyrimidine-2-carbohydrazide] | 5150 | 5040

Other lines, results leading:

Row | IC50 [1] [nM] | IC50 [2] [nM] | Compound
10 | > 10000 | 636 | CCOc1ccc(-c2cc(F)cc(C(=O)N/N=C/c3cc(OC)cc(OC)c3)n2)cc1 [Compound 68, (E)-N′-(3,5-dimethoxybenzylidene)-6-(4-ethoxyphenyl)-4-fluoropicolinohydrazide]
11 | > 10000 | > 1000 | COc1ccc(-c2ncc(C(=O)N/N=C/c3cc(OC)cc(OC)c3)o2)cc1 [Compound 73, (E)-N′-(3,5-dimethoxybenzylidene)-2-(4-methoxyphenyl) oxazole-5-carbohydrazide]
12 | > 10000 | > 1000 | CCOc1ccc(-c2cc(C(F)(F)F)cc(C(=O)N/N=C/c3cc(OC)cc(OC)c3)n2)cc1 [Compound 69]
13 | 306 | > 1000 | COc1cc(/C=N/NC(=O)c2nccc(-c3ccc(OC4CCCC4)cc3)n2)cc(OC)c1 [Compound 63, (E)-4-(4-(cyclopentyloxy)phenyl)-N′-(3,5-dimethoxybenzylidene)pyrimidine-2-carbohydrazide]
14 | > 10000 | > 1000 | COc1ccc(-c2noc(C(=O)N/N=C/c3cc(OC)cc(OC)c3)n2)cc1 [Compound 75, (E)-N′-(3,5-dimethoxybenzylidene)-3-(4-methoxyphenol)-1,2,4-oxadiazole-5-carbohydrazide]
15 | > 10000 | > 1000 | COc1ccc(-c2nc(C(=O)N/N=C/c3cc(OC)cc(OC)c3)co2)cc1 [Compound 74, (E)-N′-(3,5-dimethoxybenzylidene)-2-(4-methoxyphenol) oxazole-4-carbohydrazide]
16 | > 10000 | > 1000 | COc1ccc(-c2ccc(C(=O)N/N=C/c3cc(OC)cc(OC)c3)o2)cc1 [Compound 71, (E)-N′-(3,5-dimethoxybenzylidene)-5-(4-methoxyphenyl) furan-2-carbohydrazide]
17 | > 10000 | > 1000 | COc1ccc(-c2ccc(C(=O)N/N=C/c3cc(OC)cc(OC)c3)s2)cc1 [Compound 72, (E)-N′-(3,5-dimethoxybenzylidene)-5-(4-methoxyphenyl)thiophene-2-carbohydrazide]
18 | > 10000 | > 1000 | COc1ccc(-c2nc(C(=O)N/N=C/c3cc(OC)cc(OC)c3)cs2)cc1 [Compound 76, (E)-N′-(3,5-dimethoxybenzylidene)-2-(4-methoxyphenyl) thiazole-4-carbohydrazide]
19 | 173 | 384 | COc1cc(/C=N/NC(=O)c2nccc(-c3ccc(OC(F)(F)F)cc3)n2)cc(OC)c1 [Compound 64, (E)-N′-(3,5-dimethoxybenzylidene)-4-(4-(trifluoromethoxy)phenyl) pyrimidine-2-carbohydrazide]
20 | 569 | > 1000 | CCCOc1ccc(-c2ccnc(C(=O)N/N=C/c3cc(OC)cc(OC)c3)n2)cc1 [Compound 66, (E)-N′-(3,5-dimethoxybenzylidene)-4-(4-propoxyphenyl)pyrimidine-2-carbohydrazide]
21 | 6440 | > 1000 | COc1ccc(-c2ccnc(C(=O)N/N=C/c3cc(OC)cc(OC)c3)n2)cc1 [Compound 65, (E)-N′-(3,5-dimethoxybenzylidene)-4-(4-methoxyphenyl)pyrimidine-2-carbohydrazide]
